Activity calls are given as the source filed them. No cut-off for these calls is given here.
Tests used:
[1] = biological target: Voltage-dependent L-type calcium channel subunit alpha-1C (Homo sapiens, UniProt Q13936); assay: Inhibition of human Cav1.2 expressed in CHOK1 cells at < 33 uM at -65 mV holding potential by Ionwork-based analysis; type: cell-based
[2] = Volume of distribution at steady state in cynomolgus monkey at 1 mg/kg, iv or 2 mg/kg, po after 48 hrs; type: ADME, organism-based, Macaca fascicularis; conditions: in vivo, read-out: Vdss
Cytochrome P450 2C9 = Cytochrome P450 2C9 (Homo sapiens, UniProt P11712); assay: Inhibition of recombinant human CYP2C9 expressed in Escherichia coli using coumarin based substrate by fluorescence assay; type: ADME
Cytochrome P450 2C9, sequence (P11712 whole entry): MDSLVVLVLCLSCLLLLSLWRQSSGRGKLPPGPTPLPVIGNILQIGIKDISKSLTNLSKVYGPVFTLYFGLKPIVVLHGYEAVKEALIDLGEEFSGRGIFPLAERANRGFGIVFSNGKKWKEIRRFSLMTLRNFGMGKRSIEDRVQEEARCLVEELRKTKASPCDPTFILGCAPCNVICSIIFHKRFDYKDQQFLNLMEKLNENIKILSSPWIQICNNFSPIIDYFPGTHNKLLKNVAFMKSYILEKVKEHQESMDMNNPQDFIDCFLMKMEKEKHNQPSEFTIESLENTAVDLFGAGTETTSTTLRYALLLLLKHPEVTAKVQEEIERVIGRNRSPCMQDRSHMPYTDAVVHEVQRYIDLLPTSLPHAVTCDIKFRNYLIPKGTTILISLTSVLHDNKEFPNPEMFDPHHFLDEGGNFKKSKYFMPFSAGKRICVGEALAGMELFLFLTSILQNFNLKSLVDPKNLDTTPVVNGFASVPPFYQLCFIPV

[3] = biological target: T1, Leukotriene C4 synthase (Homo sapiens) (UniProt Q16873); assay: Inhibition of LTC4S in asthmatic human whole blood assessed as inhibition of calcium ionophore A23187 stimulated cysteinyl leukotrienes production preincuabted for 30 mins followed by calcium ionophore stimulation and measured after 10 mins by LC-MS analysis; type: tissue-based
T1 sequence (whole entry): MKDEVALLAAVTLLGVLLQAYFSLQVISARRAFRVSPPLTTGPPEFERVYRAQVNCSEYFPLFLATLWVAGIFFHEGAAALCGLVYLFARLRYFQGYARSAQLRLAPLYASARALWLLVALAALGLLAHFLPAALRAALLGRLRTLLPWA

[4] = biological target: T1, Leukotriene C4 synthase (Homo sapiens)
[5] = biological target: T2, A-type potassium channel modulatory protein KCNIP2 (Homo sapiens) (UniProt Q9NS61); assay: Inhibition of human KvChIP2 expressed in CHOK1 cells at < 33 uM at -90 mV holding potential by Ionwork-based analysis; type: cell-based
T2 sequence (whole entry): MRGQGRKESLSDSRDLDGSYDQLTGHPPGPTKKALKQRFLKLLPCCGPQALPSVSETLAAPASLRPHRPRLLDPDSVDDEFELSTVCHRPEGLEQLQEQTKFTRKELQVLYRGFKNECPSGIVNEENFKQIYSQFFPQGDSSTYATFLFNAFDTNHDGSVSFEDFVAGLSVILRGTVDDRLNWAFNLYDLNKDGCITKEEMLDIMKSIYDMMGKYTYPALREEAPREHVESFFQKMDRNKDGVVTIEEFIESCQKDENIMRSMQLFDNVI

Blood = assay: Preservation of LXA4 level in calcium ionophore A23187-stimulated healthy human whole blood preincubated for 30 mins followed by calcium ionophore A23187 stimulation and measured after 60 mins by LC-MS analysis; type: functional, tissue-based
[6] = AUC in po dosed rat at NOAEL measured after 7 days; type: ADME, organism-based; conditions: in vivo
[7] = Intrinsic clearance in human hepatocytes at 1 uM assessed as per million cells after 2 to 60 mins by LC-MS/MS analysis; type: ADME, cell-based, Hepatocyte; conditions: read-out: CLH
[8] = Volume of distribution at steady state in Beagle dog at 1 mg/kg, iv infusion or 2 mg/kg, po via gavage after 48 hrs; type: ADME, organism-based, Canis lupus familiaris; conditions: in vivo, read-out: Vdss
Cytochrome P450 2D6 = Cytochrome P450 2D6 (Homo sapiens, UniProt P10635); assay: Inhibition of recombinant human CYP2D6 using coumarin based substrate by fluorescence assay; type: ADME
Cytochrome P450 2D6, sequence (P10635 whole entry): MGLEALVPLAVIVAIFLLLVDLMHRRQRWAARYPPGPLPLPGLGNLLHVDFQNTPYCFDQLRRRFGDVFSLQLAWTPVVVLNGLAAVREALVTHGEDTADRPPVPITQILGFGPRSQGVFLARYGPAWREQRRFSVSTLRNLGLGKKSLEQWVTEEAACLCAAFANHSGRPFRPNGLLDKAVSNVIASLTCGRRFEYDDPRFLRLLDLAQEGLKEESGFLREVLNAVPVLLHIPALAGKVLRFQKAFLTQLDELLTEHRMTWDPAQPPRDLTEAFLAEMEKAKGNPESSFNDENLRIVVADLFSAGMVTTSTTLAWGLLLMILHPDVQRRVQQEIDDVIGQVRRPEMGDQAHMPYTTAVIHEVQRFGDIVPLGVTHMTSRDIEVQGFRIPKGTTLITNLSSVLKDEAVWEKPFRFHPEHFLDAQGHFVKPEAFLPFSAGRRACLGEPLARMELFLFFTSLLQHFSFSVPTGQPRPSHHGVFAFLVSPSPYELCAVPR

[9] = Oral bioavailability in Beagle dog at 2 mg/kg via gavage after 48 hrs; type: ADME, organism-based, Canis lupus familiaris; conditions: in vivo
[10] = biological target: T3, Potassium voltage-gated channel subfamily KQT member 1 (Homo sapiens, UniProt P51787); assay: Inhibition of human KvLQT1 expressed in CHOK1 cells at < 33 uM at -80 mV holding potential by Ionwork-based analysis; type: cell-based
T3 sequence (P51787 whole entry): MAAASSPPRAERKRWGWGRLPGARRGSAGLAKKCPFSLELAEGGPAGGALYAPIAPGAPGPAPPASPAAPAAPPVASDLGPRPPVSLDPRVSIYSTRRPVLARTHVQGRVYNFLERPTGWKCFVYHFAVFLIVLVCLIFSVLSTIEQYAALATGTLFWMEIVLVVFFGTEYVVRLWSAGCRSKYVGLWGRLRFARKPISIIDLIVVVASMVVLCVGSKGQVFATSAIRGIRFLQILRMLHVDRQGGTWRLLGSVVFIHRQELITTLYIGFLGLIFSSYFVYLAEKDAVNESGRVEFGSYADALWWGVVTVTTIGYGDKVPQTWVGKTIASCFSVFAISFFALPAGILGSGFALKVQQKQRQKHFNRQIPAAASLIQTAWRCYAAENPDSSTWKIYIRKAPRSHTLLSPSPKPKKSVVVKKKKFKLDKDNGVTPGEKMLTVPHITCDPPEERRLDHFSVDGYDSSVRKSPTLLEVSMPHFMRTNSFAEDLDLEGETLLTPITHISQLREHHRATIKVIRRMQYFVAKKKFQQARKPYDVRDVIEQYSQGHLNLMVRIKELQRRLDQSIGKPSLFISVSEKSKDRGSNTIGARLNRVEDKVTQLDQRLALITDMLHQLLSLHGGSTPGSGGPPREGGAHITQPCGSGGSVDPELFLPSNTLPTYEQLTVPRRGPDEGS

[11] = Fraction unbound in cynomolgus monkey plasma by equilibrium dialysis based LC-MS analysis; type: ADME, cell-free, Macaca fascicularis
[12] = Apparent permeability across apical to basolateral side in human Caco2 cells; conditions: Caco-2
[13] = Fraction unbound in Sprague-Dawley rat plasma by equilibrium dialysis based LC-MS analysis; type: ADME, cell-free
[14] = biological target: T4, A-type voltage-gated potassium channel KCND3 (Homo sapiens, UniProt Q9UK17); assay: Inhibition of human Kv4.3 expressed in CHOK1 cells at < 33 uM at -80 mV holding potential by Ionwork-based analysis; type: cell-based
T4 sequence (Q9UK17 whole entry): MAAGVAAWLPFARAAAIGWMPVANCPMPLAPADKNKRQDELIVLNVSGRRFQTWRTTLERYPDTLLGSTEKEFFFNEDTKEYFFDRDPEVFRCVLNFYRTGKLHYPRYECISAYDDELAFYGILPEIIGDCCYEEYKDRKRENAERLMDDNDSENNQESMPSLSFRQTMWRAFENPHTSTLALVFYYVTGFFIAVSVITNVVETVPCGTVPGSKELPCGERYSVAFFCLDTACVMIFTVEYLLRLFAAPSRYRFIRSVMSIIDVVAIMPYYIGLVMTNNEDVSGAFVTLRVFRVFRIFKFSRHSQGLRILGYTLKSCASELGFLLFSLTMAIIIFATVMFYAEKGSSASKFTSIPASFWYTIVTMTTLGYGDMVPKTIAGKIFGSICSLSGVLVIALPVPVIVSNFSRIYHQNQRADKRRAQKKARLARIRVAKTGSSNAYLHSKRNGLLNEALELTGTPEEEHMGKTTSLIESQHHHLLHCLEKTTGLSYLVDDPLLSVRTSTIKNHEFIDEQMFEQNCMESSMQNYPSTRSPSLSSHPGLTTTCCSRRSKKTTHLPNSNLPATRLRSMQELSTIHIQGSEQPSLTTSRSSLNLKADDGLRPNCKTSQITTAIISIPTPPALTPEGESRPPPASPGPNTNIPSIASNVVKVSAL

[15] = Oral bioavailability in cynomolgus monkey at 2 mg/kg after 48 hrs; type: ADME, organism-based, Macaca fascicularis; conditions: in vivo
[16] = Effective half life in Beagle dog at 1 mg/kg, iv infusion or 2 mg/kg, po via gavage after 48 hrs; type: ADME, organism-based, Canis lupus familiaris; conditions: in vivo, read-out: t1/2eff (converted)

Voltage-dependent L-type calcium channel subunit alpha-1C, sequence (Q13936 whole entry): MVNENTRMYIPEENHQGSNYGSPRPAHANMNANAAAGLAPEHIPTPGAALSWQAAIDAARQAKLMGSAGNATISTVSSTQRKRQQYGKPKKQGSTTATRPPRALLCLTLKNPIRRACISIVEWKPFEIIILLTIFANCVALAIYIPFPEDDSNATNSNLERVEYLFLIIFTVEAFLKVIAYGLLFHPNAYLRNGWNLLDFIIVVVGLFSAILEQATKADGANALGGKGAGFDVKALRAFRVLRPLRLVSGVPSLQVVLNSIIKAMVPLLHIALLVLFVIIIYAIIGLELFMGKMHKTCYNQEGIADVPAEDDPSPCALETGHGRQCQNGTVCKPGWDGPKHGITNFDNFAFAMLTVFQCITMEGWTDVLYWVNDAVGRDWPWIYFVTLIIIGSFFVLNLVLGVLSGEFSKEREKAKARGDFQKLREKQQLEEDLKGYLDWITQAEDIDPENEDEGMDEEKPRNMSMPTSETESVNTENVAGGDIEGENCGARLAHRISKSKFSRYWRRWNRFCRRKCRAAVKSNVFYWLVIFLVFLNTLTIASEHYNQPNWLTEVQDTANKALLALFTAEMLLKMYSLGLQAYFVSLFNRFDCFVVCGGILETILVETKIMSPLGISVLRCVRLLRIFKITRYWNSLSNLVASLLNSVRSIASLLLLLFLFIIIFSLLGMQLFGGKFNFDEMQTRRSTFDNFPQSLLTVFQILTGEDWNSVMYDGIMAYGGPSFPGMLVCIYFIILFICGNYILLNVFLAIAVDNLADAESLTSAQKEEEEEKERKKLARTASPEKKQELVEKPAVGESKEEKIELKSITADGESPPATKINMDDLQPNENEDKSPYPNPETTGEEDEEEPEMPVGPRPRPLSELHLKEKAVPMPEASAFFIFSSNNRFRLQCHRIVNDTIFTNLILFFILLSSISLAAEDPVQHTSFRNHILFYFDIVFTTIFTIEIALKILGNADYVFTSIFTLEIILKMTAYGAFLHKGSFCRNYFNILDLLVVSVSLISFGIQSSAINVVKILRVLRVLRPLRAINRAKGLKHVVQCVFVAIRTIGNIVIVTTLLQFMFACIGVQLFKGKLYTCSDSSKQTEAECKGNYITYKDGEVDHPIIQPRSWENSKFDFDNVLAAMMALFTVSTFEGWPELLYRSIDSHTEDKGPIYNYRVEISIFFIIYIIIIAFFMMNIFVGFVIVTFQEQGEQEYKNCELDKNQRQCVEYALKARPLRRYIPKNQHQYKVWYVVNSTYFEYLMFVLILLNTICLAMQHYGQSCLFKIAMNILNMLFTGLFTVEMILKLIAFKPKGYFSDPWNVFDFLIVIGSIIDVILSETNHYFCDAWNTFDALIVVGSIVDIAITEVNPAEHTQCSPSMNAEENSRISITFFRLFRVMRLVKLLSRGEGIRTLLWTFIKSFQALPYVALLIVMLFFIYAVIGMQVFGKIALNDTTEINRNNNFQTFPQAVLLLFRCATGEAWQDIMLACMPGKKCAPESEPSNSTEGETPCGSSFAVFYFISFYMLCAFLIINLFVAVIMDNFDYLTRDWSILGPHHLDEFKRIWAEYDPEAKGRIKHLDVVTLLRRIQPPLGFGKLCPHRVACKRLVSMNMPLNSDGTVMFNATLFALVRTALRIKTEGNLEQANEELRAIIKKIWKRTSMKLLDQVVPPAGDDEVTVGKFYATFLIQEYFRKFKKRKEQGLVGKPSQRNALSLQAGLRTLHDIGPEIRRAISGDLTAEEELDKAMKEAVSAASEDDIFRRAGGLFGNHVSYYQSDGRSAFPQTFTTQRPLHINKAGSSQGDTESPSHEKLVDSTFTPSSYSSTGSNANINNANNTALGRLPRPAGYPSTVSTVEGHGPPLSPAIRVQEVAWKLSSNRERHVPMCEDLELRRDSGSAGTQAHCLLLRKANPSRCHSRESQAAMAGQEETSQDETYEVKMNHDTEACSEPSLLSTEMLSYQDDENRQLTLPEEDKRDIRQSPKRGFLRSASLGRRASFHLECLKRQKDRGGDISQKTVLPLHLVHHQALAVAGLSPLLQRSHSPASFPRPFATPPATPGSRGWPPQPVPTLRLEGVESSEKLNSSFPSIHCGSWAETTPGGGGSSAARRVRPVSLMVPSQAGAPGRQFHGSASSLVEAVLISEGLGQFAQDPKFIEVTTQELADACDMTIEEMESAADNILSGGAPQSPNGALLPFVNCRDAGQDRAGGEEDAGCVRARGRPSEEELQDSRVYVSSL

Vd [2]: 0.6 L/kg
IC50 (Cytochrome P450 2C9): > 30 µM
inhibition [3]: Active
fIC50 [4]: 6.2 nM
inhibition [5]: inactive
hepatocyte CLint at 1 µM [7]: < 1.2 µL/min/1e6 cells
Vd [8]: 1 L/kg
IC50 (Cytochrome P450 2D6): > 30 µM
bioavailability [9]: 100%
inhibition (INH) [10]: Not Active
fraction unbound [11]: 0.03
Papp A→B [12]: 61 ×10⁻⁶ cm/s
fraction unbound [13]: 0.025
inhibition (INH) [14]: Not Active
bioavailability [15]: 90%
half-life [16]: 6.1 h
Structure (SMILES): COc1nc(N(CC(C)(C)F)c2cc(Cl)c(F)cc2F)cnc1C(=O)[C@H]1C[C@@H]1C(=O)O [AZD-9898]
inhibition (INH) [1]: Not Active
Activity (Blood): Dose-dependent effect
AUC [6]: 4500 µM·h
